Measured values published in paper PMC5660723, “Histone Deacetylase Inhibitors Are Protective in Acute but Not in Chronic Models of Ototoxicity” (Frontiers in Cellular Neuroscience, 2017).

Columns and labels:
[1] = tested on: outer hair cells (OHCs) of p3 murine organ of Corti explants; assay: Toxicity of HDAC inhibitors in murine cochlear explants (OHC loss by hair cell counts); assay type: cell-based, CBA/J mice
Excerpt: The culture procedures have been described in detail (Chen et al., [2009]). In brief, postnatal day 3 (p3) CBA/J pups were euthanized after antisepsis using 70% ethanol. Inner ears were extracted from surrounding tissue and immersed in cold Hank’s balanced salt solution. The lateral wall tissues (stria vascularis and spiral ligament) and the auditory nerve bundle were micro-dissected from the organ of Corti. The explants were placed onto a prepared culture dish containing a 15-μL polymerized drop of rat tail collagen in 1 mL of culture medium consisting of Basal Medium Eagle, 1% serum-free supplement (Invitrogen, Carlsbad, CA, USA), 1% bovine serum albumin, 5 mg/mL glucose, and 10 U/mL penicillin G. After 4 h of incubation (37°C, 5% CO2), an additional 1 mL of medium was added to submerge the explants.
The medium was then exchanged for new medium containing a final concentration of 4.5 μM GM with or without various concentrations of the HDAC inhibitors and incubated for 72 h. The stock solutions with 95 mM of SAHA/vorinostat (Cayman Chemical, Ann Arbor, MI, USA), 100 mM of belinostat (Selleckchem, Houson, TX, USA), and 100 mM of panobinostat (Cayman Chemical), were dissolved in 100% dimethyl sulfoxide (DMSO) and stored at −20°C. GM solution was made fresh from powder in culture medium at 0.2 mM and then diluted to the final concentration for each experiment.
Explants were fixed with 4% paraformaldehyde overnight at 4°C and permeabilized for 30 min with 3% Triton X-100 in phosphate-buffered saline (PBS) at room temperature (22–24°C). The specimens were then washed three times with PBS and incubated with rhodamine-phalloidin (Invitrogen) at a 1:100 dilution for 60 min at room temperature (22–24°C). After rinsing in PBS, the specimens were mounted on a slide with Gel-Mount™ (BioMeda Corp., Foster City, CA, USA). The phalloidin-stained stereociliary bundles and circumferential F-actin rings on the cuticular plate of OHCs allowed the determination of cells that were present or missing. A clear “V” shape of stereocilia indicates the presence of OHCs. If the “V” shape is not visualized, we accept this as a damaged hair cells. Cell populations were assessed on a Leitz Orthoplan upright microscope equipped for epifluorescence, using a 50× oil-immersion objective. […] Each successive 0.19-mm field was evaluated for the absence of OHCs beginning from the apex and moving down the organ of Corti to the base. The percentage of OHC loss was calculated.
In order to evaluate the protective potential of the three HDAC inhibitors on aminoglycoside-induced ototoxicity, we first determined their safety on auditory sensory hair cells using p3 murine organ of Corti explants. Explants were incubated for 2 days for recovery from the stress of dissection, followed by 72 h of incubation with or without inhibitors. Toxic effects were assessed by OHC loss. […] OHCs in the basal turn show changes in the orientation of the stereociliary bundles beginning with concentrations of 4 μM for SAHA, 3 μM for belinostat, and 20 nM for panobinostat.

[2] = tested on: CBA/J mice; assay: Kanamycin-induced hearing loss in CBA/J mice in vivo (ABR threshold shifts), chronic model; details: SAHA 50 mg/kg IP twice daily for 15 days with KM 700 mg base/kg twice daily
Method: Male CBA/J mice at the age of 5 weeks received subcutaneous (SQ) injections of KM at 700 mg base/kg (dissolved in saline) twice per day (AM and PM). SAHA for administration was dissolved in 100% DMSO for stock solutions of 50 mg/mL and diluted with saline immediately before intraperitoneal (IP) injection, for a final dose of 50 mg/kg, given twice per day for 15 days. The concentration of DMSO vehicle control was 1 mL/kg body weight. All solutions were filtered with a syringe filter before injection. Body weight was measured before each injection.
ABRs were measured 3 days before and 3 weeks after drug treatments. Animals were anesthetized with IP injections of ketamine (100 mg/kg) and xylazine (10 mg/kg) for mice or ketamine (58.8 mg/kg), xylazine (2.4 mg/kg), and acepromazine (1.2 mg/kg) for guinea pigs. Body temperature was maintained near 37°C with a heating pad. ABRs were measured at 12 and 32 kHz for guinea pigs or 8, 16, and 32 kHz for mice in a sound-isolated and electrically shielded booth (Acoustic Systems, Austin, TX, USA). Sub-dermal electrodes were inserted at the vertex of the skull, under the left ear and under the right ear (ground). Tucker Davis Technology System III hardware and SigGen/Biosig software were used to present the stimuli monaurally (15 ms duration tone bursts with 1 ms rise-fall time) through a Beyer earphone attached to a customized plastic speculum inserted into the ear canal. Up to 1024 responses were averaged for each stimulus level. Thresholds (the lowest stimulus level with a reproducible response) were determined by reducing the intensity in 10-dB steps and then in 5-dB steps approaching the threshold until no organized response was detected. Thresholds were evaluated based on ABR wave I. Scores were given by an expert blinded to experimental conditions between the highest stimulus level without a response and the lowest stimulus level where an organized response was observed. All ABR measurements were conducted by the same experimenter. […]

For `O=C(CCCCCCC(=O)Nc1ccccc1)NO` [SAHA, vorinostat], the “loss of OHCs” value ([1]; 8 μM, 72 h) was 100%, the “concentration at which changes in orientation of stereociliary bundles of basal-turn OHCs begin” value ([1]; 72 h incubation) was 4 µM and the “TD50 (median toxic dose, concentration leading to 50% OHC loss)” value ([1]; p3 murine explants, 72 h incubation) was 5.5 µM. For the same molecule, the “effect on KM-induced auditory threshold shifts” value [2] was “did not attenuate”.
